{
  "source": "patent US20240053332A1",
  "about": "“Methods and Compositions Utilising Vitamin B12 Binding” (priority 2020, published 2024)",
  "key": {"[1]": {"test_system": "Bacteroides thetaiotaomicron (Bt)", "experiment": "growth of Bt dependent upon vitB12", "format": "cell-based", "description": "Less growth is seen with serial 10-fold dilutions of B12-bound BEVs. By contrast and as controls, no growth is seen by adding 1 mM vitB12 directly to the cultures or by adding BEVs alone with no bound vitB12."}, "BtuG2": {"molecular_target": "BtuG2", "experiment": "affinity of BtuG2 protein for B12", "format": "binding", "source_text": "We believe that it is possible to exploit this tight interaction in the same way as the Biotin-avidin system. We have shown that it is possible to attach protein-linkers to vitamin B12, allow vitamin B12 to become attached to proteins that have the necessary exposed amino acid side chains. […] The attachment is specific and strong. • (b) With Mologic, we have shown that a B12-maleimide will bind to a lactate dehydrogenase antibody, allowing the complex to be used in an immunoassay. This provides the proof of principal that the B12-B12 binding protein system can be exploited in therapeutic assays and diagnostics in the same way as biotin-avidin."}},
  "data": [
    {"substance": "cobalamin [vitB12]", "values": [
      {"measurement": "growth of Bt in vitB12-deficient media", "setting": "[1]; FIG. 1 left panel, 1 mM vitB12, bound to BEVs or added directly to the cultures", "value": "no growth"},
      {"measurement": "vitB12 concentration giving maximal growth of Bt", "setting": "[1]; FIG. 1 right panel, no growth in its absence (0 nM)", "value": 100, "unit": "nM"},
      {"measurement": "affinity of BtuG2 for B12", "setting": "BtuG2", "value": "femtomolar region"}
    ]}
  ]
}
